Consider two molecules from patent US10864251B2, “Peptides of syndecan-1 for inhibiting angiogenesis” (Wisconsin Alumni Research Foundation, priority 2006, dated 2020).

In one data set the test system is B82L fibroblasts. In kind it is cell-based, mouse. As to conditions: 6 h. As to the method:
FIGS. 6A-6H—Inhibition of B82L fibroblast and HMEC-1 cell attachment and spreading on VN by synstatin82-130. B82L fibroblasts, which rely on the αvβ5 integrin for attachment to VN, and human dermal microvascular endothelial cells, which rely on both the αvβ3 and αvβ5 integrins for attachment to VN, were plated in the absence of peptide (FIGS. 6A, 6E) or in the presence of 0.1 (FIGS. 6B, 6F), 0.3 (FIGS. 6C, 6G) or 1 μM (FIGS. 6D, 6H) synstatin82-130 for 2 hr and processed as described in FIG. 2.
Cell adhesion and spreading assays were performed with modification to the previous procedures (Lebakken and Rapraeger, 1996. Briefly, human plasma vitronectin or fibronectin at 10-30 μg/ml were applied to nitrocellulose-coated ten well slides (Erie Scientific) and incubated for 1-2 h at 37° C. Slides were blocked with 1.0% heat-denatured bovine serum albumin for a minimum of 30 min at 37° C. Cells were detached from the substratum using 5 mM EDTA in Tris-buffered saline and resuspended in HEPES-buffered culture medium containing 0.1% heat-denatured BSA. Cells were plated at a density of 15,000 cells per well and allowed to attach and spread for 2 h prior to fixation in 4% paraformaldehyde in CMF-PBS. For fluorescence microscopy, fixed cells were permeabilized in 0.2% Triton X-100, labeled with rhodamine-conjugated phalloidin and analyzed using fluorescence microscopy. […]

The nature of data set [1]: Active SSTN in blood detected on dot blots. In kind it is in vivo. As to conditions: mouse. As to the method: Lastly, SSTN was tested in the in vivo corneal angiogenesis assay. Polyhydroxyethylmethylacrylate pellets (0.25 μL) containing 67 ng FGF-2 and sucralfate as a slow release agent were implanted into the avascular mouse cornea. After seven days, fluorescent dextran was injected suborbitally to highlight the vascular system and the mice were sacrificed. […] To supply the inhibitor in a more quantifiable and physiological manner, recombinant mS1ED or SSTN were delivered systemically via Alzet osmotic pumps implanted subcutaneously on the backs of the animals. […] To correlate this with the active concentration in the plasma, the inventors took advantage of rabbit polyclonal antibodies generated against mS1ED, which detect active SSTN on dot blots. […] Using this method to detect active SSTN in the blood collected from animals after 1 week of SSTN treatment, SSTN is shown to be in the blood at 125-150 nM when present at 10 μM in the osmotic pump.

Data set [2] has as its system mouse aortic endothelial cells. As to the kind of experiment: Cell spreading on VN, mouse aortic endothelial cells. In kind it is cell-based. As to conditions: 1 μM competitor. The protocol:
FIGS. 10A-10D—Dependence of HMEC cell attachment and spreading on integrin activation by Sdc1 and its inhibition by SSTN. (FIG. 10A) HMECs were plated for 2 hr either on Sdc1-specific antibody B-B4 to engage Sdc1 or on VN (10 μg/ml coating concentration) to engage the αvβ3 and αvβ5 integrins. Blocking antibodies LM609 (10 μg/ml, specific for αvβ3) and P1F6 (10 μg/ml, specific for αvβ5), SSTN (0.5 μM) or recombinant mouse Sdc1 ectodomain (mS1ED, 5 μM) were added. The ligand mimetic antibody WOW1 was used to detect activated αvβ3 integrin on cells plated on B-B4. (FIG. 10B) HMECs were treated with siRNA oligo specific for human Sdc1 for 48 hr prior to plating on VN. Sdc1 expression was quantified by flow cytometry using human Sdc1-specific mAb B-B4 or a control mouse IgG. (FIG. 10C-10D) The percentage of cell attaching or attaching and spreading was quantified for HMECs, HAEC and MAECs plated on VN for 24 hr in the presence of mS1ED or SSTN, or after siRNA silencing of Sdc1 expression in the presence of mAb LM609 to block αvβ3 integrin, P1F6 to block αvβ5 integrin, or both antibodies.
The next test was whether agents that target Sdc1, especially competition with recombinant S1ED, will block the activity of these two integrins and thus block their interaction with VN. […]

The test system of data set [3] is MDA-MB-231 human mammary carcinoma cells. Conditions: MDA-MB-231 on vitronectin; shown previously (Beauvais et al., 2004); read-out: IC50, block of cell spreading on VN; cited from earlier work.

Where no end group is shown, it is not given here.

In the data set on B82L fibroblasts, “SNTETAFTSVLPAGEKPEEGEPVLHVEAEPGFTARDKEKEVTTRPRETV [synstatin82-130]” registered an IC50 of approximately 100 nM. Moreover, the level at time molar at 168 h in data set [1] (blood, sc, after 1 week, 10 μM in the osmotic pump, read-out: concentration in the blood) lay within 125 to 150 nM. In addition, in data set [1] (suggested from blood level), the “clearance rate in the plasma” value lay in the range of 10 to 13 h.

B1: S1ED: recombinant mouse Sdc1 ectodomain (amino acids 18-251), expressed in bacteria as GST fusion or 6×His-tagged protein (protein)
chain: QPALPQIVAVNVPPEDQDGSGDDSDNFSGSGTGALPDTLSRQTPSTWKDVWLLTATPTAPEPTSSNTETAFTSVLPAGEKPEEGEPVLHVEAEPGFTARDKEKEVTTRPRETVQLPITQRASTVRVTTAQAAVTSHPHGGMQPGLHETSAPTAPGQPDHQPPRVEGGGTSVIKEVVEDGTANQLPAGEGSGEQDFTFETSGENTAVAAVEPGLRNQPPVDEGATGASQSLLDRK
modifications: left off: a dimerising Fc or GST
notes: recombinant mouse Sdc1 ectodomain (amino acids 18-251), expressed in bacteria as GST fusion or 6×His-tagged protein
Regarding B1, the “spreading on VN” value in data set [2] is “blocked”. In addition, the IC50 in data set [3] is 3000 to 10000 nM.
